Our source for the Activity values is ChEMBL document CHEMBL3044805, “A comparative study of the efficiency of several sources of induced resistance to powdery mildew (Blumeria graminis f. sp. tritici) in wheat under field conditions” (2009).

Test [1] concerns Triticum aestivum. The experiment in a line: Induction of systemic acquired resistance against Blumeria graminis f. sp. tritici in Triticum aestivum (wheat) plants on Kanzler cultivar assessed as decrease in disease severity of powdery mildew in leaves […] (wheat) exposed to 0.3 M compound for 3 years by small-plot experiment relative to control. The class given is functional. On the set-up: scale not given: the % may be the effect or the level left.

The subject of test [2] is Triticum aestivum. As to the kind of experiment: Induction of systemic acquired resistance against Blumeria graminis f. sp. tritici in Triticum aestivum (wheat) plants on Kanzler cultivar assessed as decrease in disease severity of powdery mildew in leaves […] (wheat) exposed to 1.2 mM compound for 3 years by small-plot experiment relative to control. It is filed as functional. On the set-up: scale not given: the % may be the effect or the level left.

As for `C[N+](C)(C)CC(=O)O` [BETAINE], the Activity with Triticum aestivum [1] stood at 31.8%. `CSC(=O)c1cccc2nnsc12` [ACIBENZOLAR-S-METHYL]: the Activity with Triticum aestivum [2] was 14.5%.
